target: T1, Wee1 kinase (Homo sapiens, UniProt P30291); assay: Wee1 time-resolved fluorescence equilibrium binding assay (probe displacement); settings: GST-tagged-Wee1 kinase 2 nM, fluorescent probe 300 nM, 1 hour incubation; read-out: Wee-1 binding (Ki nM)
T1 construct: purchased Carnabio 05-177
Method: Wee1 kinase was assayed using a time-resolved fluorescence equilibrium binding assay monitoring displacement of a rapidly reversible Oregon Green-labeled ATP-competitive kinase probe (N-(2-(2-(2-(4-(4-(5-chloro-4-(2-(1-hydroxycyclobutyl)thiazol-5-yl)-1H-pyrrolo[2,3-b]pyridin-2-yl)phenyl)piperazin-1-yl)ethoxy)ethoxy)ethyl)-2′,7′-difluoro-3′,6′-dihydroxy-3-oxo-3H-spiro[isobenzofuran-1,9′-xanthene]-5-carboxamide) by competitive Wee1 inhibitors.

T1 sequence (P30291 whole entry): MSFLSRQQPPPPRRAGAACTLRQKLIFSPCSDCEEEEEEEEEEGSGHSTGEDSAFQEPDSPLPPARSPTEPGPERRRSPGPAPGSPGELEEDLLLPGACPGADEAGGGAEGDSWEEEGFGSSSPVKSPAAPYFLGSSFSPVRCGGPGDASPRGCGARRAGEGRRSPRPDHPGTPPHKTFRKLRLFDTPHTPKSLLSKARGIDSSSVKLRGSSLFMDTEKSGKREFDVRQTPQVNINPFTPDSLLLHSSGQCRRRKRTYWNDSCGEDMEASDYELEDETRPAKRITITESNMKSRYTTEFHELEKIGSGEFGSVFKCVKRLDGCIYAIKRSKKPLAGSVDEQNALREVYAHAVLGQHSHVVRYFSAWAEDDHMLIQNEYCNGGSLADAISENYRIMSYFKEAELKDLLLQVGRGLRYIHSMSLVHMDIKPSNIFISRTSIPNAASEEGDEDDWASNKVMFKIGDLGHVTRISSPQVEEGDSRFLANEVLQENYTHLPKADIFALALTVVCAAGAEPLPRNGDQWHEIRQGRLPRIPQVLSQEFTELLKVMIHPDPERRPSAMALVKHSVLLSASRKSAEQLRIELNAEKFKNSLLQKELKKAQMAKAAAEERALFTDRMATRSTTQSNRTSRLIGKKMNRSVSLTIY

Ki	Structure (SMILES)
0.6 nM	CCn1cc(-c2c(Cl)cccc2Cl)c(=O)c2cnc(Nc3ccc(N4CCN(C)CC4)cc3)nc21 [Example 31, 6-(2,6-dichlorophenyl)-8-ethyl-2-{[4-(4-methylpiperazin-1-yl)phenyl]amino}pyrido[2,3-d]pyrimidin-5(8H)-one]
0.3 nM	CCn1cc(-c2c(Cl)cccc2Cl)c(=O)c2cnc(Nc3ccc4c(c3)CN(C)CC43CC3)nc21 [Example 32, 6-(2,6-dichlorophenyl)-8-ethyl-2-[(2′-methyl-2′,3′-dihydro-1′H-spiro[cyclopropane-1,4′-isoquinolin]-7′-yl)amino]pyrido[2,3-d]pyrimidin-5(8H)-one]
1.5 nM	CN1CCN(c2ccc(Nc3ncc4c(=O)c(-c5c(F)cccc5Cl)cn(C)c4n3)cc2)CC1 [Example 33, 6-(2-chloro-6-fluorophenyl)-8-methyl-2-{[4-(4-methylpiperazin-1-yl)phenyl]amino}pyrido[2,3-d]pyrimidin-5(8H)-one]
0.4 nM	CN1Cc2cc(Nc3ncc4c(=O)c(-c5c(F)cccc5Cl)cn(C)c4n3)ccc2C2(CC2)C1 [Example 34, 6-(2-chloro-6-fluorophenyl)-8-methyl-2-[(2′-methyl-2′,3′-dihydro-1′H-spiro[cyclopropane-1,4′-isoquinolin]-7′-yl)amino]pyrido[2,3-d]pyrimidin-5(8H)-one]
66 nM	COc1ccc(Cn2cc(-c3c(F)cccc3Cl)c(=O)c3cnc(Nc4ccc(N5CCN(C)CC5)cc4)nc32)cc1 [Example 35, 6-(2-chloro-6-fluorophenyl)-8-(4-methoxybenzyl)-2-{[4-(4-methylpiperazin-1-yl)phenyl]amino}pyrido[2,3-d]pyrimidin-5(8H)-one]
33 nM	COc1ccc(Cn2cc(-c3c(F)cccc3Cl)c(=O)c3cnc(Nc4ccc5c(c4)CN(C)CC54CC4)nc32)cc1 [Example 36, 6-(2-chloro-6-fluorophenyl)-8-(4-methoxybenzyl)-2-[(2′-methyl-2′,3′-dihydro-1′H-spiro[cyclopropane-1,4′-isoquinolin]-7′-yl)amino]pyrido[2,3-d]pyrimidin-5(8H)-one]
2.4 nM	CN1CCN(c2ccc(Nc3ncc4c(=O)c(-c5c(F)cccc5Cl)cn(C5CC5)c4n3)cc2)CC1 [Example 37, 6-(2-chloro-6-fluorophenyl)-8-cyclopropyl-2-{[4-(4-methylpiperazin-1-yl)phenyl]amino}pyrido[2,3-d]pyrimidin-5(8H)-one]
1.3 nM	CN1Cc2cc(Nc3ncc4c(=O)c(-c5c(F)cccc5Cl)cn(C5CC5)c4n3)ccc2C2(CC2)C1 [Example 38, 6-(2-chloro-6-fluorophenyl)-8-cyclopropyl-2-[(2′-methyl-2′,3′-dihydro-1′H-spiro[cyclopropane-1,4′-isoquinolin]-7′-yl)amino]pyrido[2,3-d]pyrimidin-5(8H)-one]
0.7 nM	CN1Cc2cc(Nc3ncc4c(=O)c(-c5c(F)cccc5Cl)c[nH]c4n3)ccc2C2(CC2)C1 [Example 39, 6-(2-chloro-6-fluorophenyl)-2-[(2′-methyl-2′,3′-dihydro-1′H-spiro[cyclopropane-1,4′-isoquinolin]-7′-yl)amino]pyrido[2,3-d]pyrimidin-5(8H)-one]
2.4 nM	CN1CCN(c2ccc(Nc3ncc4c(=O)c(-c5c(F)cccc5Cl)c[nH]c4n3)cc2)CC1 [Example 40, 6-(2-chloro-6-fluorophenyl)-2-{[4-(4-methylpiperazin-1-yl)phenyl]amino}pyrido[2,3-d]pyrimidin-5(8H)-one]
0.4 nM	CN(C)C1Cc2ccc(Nc3ncc4c(=O)c(-c5c(Cl)cccc5Cl)c[nH]c4n3)cc2C1 (stereo not shown) [Example 41, 6-(2,6-dichlorophenyl)-2-{[2-(dimethylamino)-2,3-dihydro-1H-inden-5-yl]amino}pyrido[2,3-d]pyrimidin-5(8H)-one]
0.2 nM	CN1Cc2cc(Nc3ncc4c(=O)c(-c5c(Cl)cccc5Cl)c[nH]c4n3)ccc2C(C)(C)C1 [Example 42, 6-(2,6-dichlorophenyl)-2-[(2,4,4-trimethyl-1,2,3,4-tetrahydroisoquinolin-7-yl)amino]pyrido[2,3-d]pyrimidin-5(8H)-one]
0.3 nM	O=c1c(-c2c(Cl)cccc2Cl)c[nH]c2nc(Nc3ccc4c(c3)CNCC43CC3)ncc12 [Example 43, 6-(2,6-dichlorophenyl)-2-(2′,3′-dihydro-1′H-spiro[cyclopropane-1,4′-isoquinolin]-7′-ylamino)pyrido[2,3-d]pyrimidin-5(8H)-one]
0.5 nM	CN(C)C1CCN(c2ccc(Nc3ncc4c(=O)c(-c5c(Cl)cccc5Cl)cn(C)c4n3)cc2)CC1 [Example 44, 6-(2,6-dichlorophenyl)-2-({4-[4-(dimethylamino)piperidin-1-yl]phenyl}amino)-8-methylpyrido[2,3-d]pyrimidin-5(8H)-one]
180 nM	Cn1cc(-c2c(Cl)cccc2Cl)c(=O)c2cnc(N)nc21 [Example 45, 2-amino-6-(2,6-dichlorophenyl)-8-methylpyrido[2,3-d]pyrimidin-5(8H)-one]
1.1 nM	Cn1cc(-c2c(Cl)cccc2Cl)c(=O)c2cnc(Nc3ccc4c(c3)CCNC4)nc21 [Example 46, 6-(2,6-dichlorophenyl)-8-methyl-2-(1,2,3,4-tetrahydroisoquinolin-6-ylamino)pyrido[2,3-d]pyrimidin-5(8H)-one]

Ki	Structure (SMILES)
0.6 nM	Cn1cc(-c2c(Cl)cccc2Cl)c(=O)c2cnc(Nc3ccc4c(c3)CNCC4(C)C)nc21 [Example 47, 6-(2,6-dichlorophenyl)-2-[(4,4-dimethyl-1,2,3,4-tetrahydroisoquinolin-7-yl)amino]-8-methylpyrido[2,3-d]pyrimidin-5(8H)-one]
1.7 nM	Cn1cc(-c2c(Cl)cccc2Cl)c(=O)c2cnc(Nc3ccc(N4CCOCC4)cc3)nc21 [Example 48, 6-(2,6-dichlorophenyl)-8-methyl-2-{[4-(morpholin-4-yl)phenyl]amino}pyrido[2,3-d]pyrimidin-5(8H)-one]
0.8 nM	Cn1cc(-c2c(Cl)cccc2Cl)c(=O)c2cnc(Nc3ccc4c(c3)CNC4)nc21 [Example 49, 6-(2,6-dichlorophenyl)-2-(2,3-dihydro-1H-isoindol-5-ylamino)-8-methylpyrido[2,3-d]pyrimidin-5(8H)-one]
0.9 nM	CN1CCC(c2ccc(Nc3ncc4c(=O)c(-c5c(Cl)cccc5Cl)cn(C)c4n3)cc2)CC1 [Example 50, 6-(2,6-dichlorophenyl)-8-methyl-2-{[4-(1-methylpiperidin-4-yl)phenyl]amino}pyrido[2,3-d]pyrimidin-5(8H)-one]
0.4 nM	Cn1cc(-c2c(Cl)cccc2Cl)c(=O)c2cnc(Nc3ccc4c(c3)CNCC4)nc21 [Example 51, 6-(2,6-dichlorophenyl)-8-methyl-2-(1,2,3,4-tetrahydroisoquinolin-7-ylamino)pyrido[2,3-d]pyrimidin-5(8H)-one]
0.5 nM	CN1CCc2ccc(Nc3ncc4c(=O)c(-c5c(Cl)cccc5Cl)cn(C)c4n3)cc2C1 [Example 52, 6-(2,6-dichlorophenyl)-8-methyl-2-[(2-methyl-1,2,3,4-tetrahydroisoquinolin-7-yl)amino]pyrido[2,3-d]pyrimidin-5(8H)-one]
0.3 nM	CN1CCc2cc(Nc3ncc4c(=O)c(-c5c(Cl)cccc5Cl)cn(C)c4n3)ccc2C1 [Example 54, 6-(2,6-dichlorophenyl)-8-methyl-2-[(2-methyl-1,2,3,4-tetrahydroisoquinolin-6-yl)amino]pyrido[2,3-d]pyrimidin-5(8H)-one]
0.4 nM	Cn1cc(-c2c(Cl)cccc2Cl)c(=O)c2cnc(Nc3ccc4c(c3)CC(N3CCCC3)C4)nc21 (stereo not shown) [Example 55, 6-(2,6-dichlorophenyl)-8-methyl-2-{[2-(pyrrolidin-1-yl)-2,3-dihydro-1H-inden-5-yl]amino}pyrido[2,3-d]pyrimidin-5(8H)-one]
27 nM	Cn1cc(-c2c(Cl)cccc2Cl)c(=O)c2cnc(Nc3ccc4c(c3)C(=O)NC4=O)nc21 [Example 56, 5-{[6-(2,6-dichlorophenyl)-8-methyl-5-oxo-5,8-dihydropyrido[2,3-d]pyrimidin-2-yl]amino}-1H-isoindole-1,3(2H)-dione]
0.9 nM	CN1CCN(C2Cc3ccc(Nc4ncc5c(=O)c(-c6c(Cl)cccc6Cl)cn(C)c5n4)cc3C2)CC1 (stereo not shown) [Example 57, 6-(2,6-dichlorophenyl)-8-methyl-2-{[2-(4-methylpiperazin-1-yl)-2,3-dihydro-1H-inden-5-yl]amino}pyrido[2,3-d]pyrimidin-5(8H)-one]
0.4 nM	Cn1cc(-c2c(Cl)cccc2Cl)c(=O)c2cnc(Nc3cc4c(s3)CCNC4)nc21 [Example 58, 6-(2,6-dichlorophenyl)-8-methyl-2-(4,5,6,7-tetrahydrothieno[3,2-c]pyridin-2-ylamino)pyrido[2,3-d]pyrimidin-5(8H)-one]
18 nM	CN1CCN(c2ncc(Nc3ncc4c(=O)c(-c5c(Cl)cccc5Cl)cn(C)c4n3)cn2)CC1 [Example 59, 6-(2,6-dichlorophenyl)-8-methyl-2-{[2-(4-methylpiperazin-1-yl)pyrimidin-5-yl]amino}pyrido[2,3-d]pyrimidin-5(8H)-one]
0.2 nM	CN1Cc2cc(Nc3ncc4c(=O)c(-c5c(Cl)cccc5Cl)cn(C)c4n3)ccc2C1(C)C [Example 60, 6-(2,6-dichlorophenyl)-8-methyl-2-[(1,1,2-trimethyl-2,3-dihydro-1H-isoindol-5-yl)amino]pyrido[2,3-d]pyrimidin-5(8H)-one]
0.6 nM	CN1CCC(Nc2ccc(Nc3ncc4c(=O)c(-c5c(Cl)cccc5Cl)cn(C)c4n3)cc2)CC1 [Example 61, 6-(2,6-dichlorophenyl)-8-methyl-2-({4-[(1-methylpiperidin-4-yl)amino]phenyl}amino)pyrido[2,3-d]pyrimidin-5(8H)-one]
3 nM	CN(C)C1CCN(c2ncc(Nc3ncc4c(=O)c(-c5c(Cl)cccc5Cl)cn(C)c4n3)cn2)CC1 [Example 62, 6-(2,6-dichlorophenyl)-2-({2-[4-(dimethylamino)piperidin-1-yl]pyrimidin-5-yl}amino)-8-methylpyrido[2,3-d]pyrimidin-5(8H)-one]

— US9181239B2, “Pyridopyrimidinone inhibitors of kinases” (AbbVie Inc., priority 2011, dated 2015)
